For 10 compounds, IC50 results are on record in patent US12371428B2 (Exelixis, Inc., priority 2019, dated 2025).

Usually IC50 stands for the concentration needed to halve the response being measured.

Assay [1] deals with Human MET (residues 956-1390) (Homo sapiens (Human), UniProt P08581). The experiment in a line: Human Met kinase assay, HTRF KinEase (Example D-2). In kind it is biochemical. The note with it: protocol of Example D-2 (other compounds); read-out: c-Met IC50. The procedure, abridged:
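IC50 values come from a 4-parameter logistic fit of the […] fluorescence ratio, set between DMSO (100%) and reference compound at 1 μM (0%). Reactions held MET 956-1390 at 0.1 ng/well, ATP at Km, biotinylated peptide, 5 mM MgCl2, 1 mM MnCl2, 1 mM DTT and 3% DMSO, and ran 40 min at room temperature before streptavidin-XL665/Eu-antibody detection.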
Background: Time-resolved FRET reads energy transfer from a long-lived donor to a nearby acceptor.

Assay [2] has as its target Met (phospho-Met, HGF-stimulated PC-3 prostate cancer cells) (Homo sapiens (Human), UniProt P08581). The experiment in a line: Met autophosphorylation ELISA in PC-3 cells (Example F). The note with it: cellular activity; Met autophosphorylation ELISA in PC-3 cells; read-out: c-Met IC50. It is filed as cell-based. The procedure, abridged: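 Sandwich ELISA for phospho-Met (panTyr) in PC-3 lysates. Cells starved 3 h serum-free, compound 1 h (8-pt curve, 0.3% DMSO), HGF 100 ng/mL 10 min. 100% = HGF + DMSO; 0% = HGF + reference inhibitor. IC50 by 4-parameter fit.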
On the technique in general: An ELISA detects its analyte on a solid surface through an enzyme-linked reagent.

Chain of Met (phospho-Met, HGF-stimulated PC-3 prostate cancer cells) (P08581 25-1390): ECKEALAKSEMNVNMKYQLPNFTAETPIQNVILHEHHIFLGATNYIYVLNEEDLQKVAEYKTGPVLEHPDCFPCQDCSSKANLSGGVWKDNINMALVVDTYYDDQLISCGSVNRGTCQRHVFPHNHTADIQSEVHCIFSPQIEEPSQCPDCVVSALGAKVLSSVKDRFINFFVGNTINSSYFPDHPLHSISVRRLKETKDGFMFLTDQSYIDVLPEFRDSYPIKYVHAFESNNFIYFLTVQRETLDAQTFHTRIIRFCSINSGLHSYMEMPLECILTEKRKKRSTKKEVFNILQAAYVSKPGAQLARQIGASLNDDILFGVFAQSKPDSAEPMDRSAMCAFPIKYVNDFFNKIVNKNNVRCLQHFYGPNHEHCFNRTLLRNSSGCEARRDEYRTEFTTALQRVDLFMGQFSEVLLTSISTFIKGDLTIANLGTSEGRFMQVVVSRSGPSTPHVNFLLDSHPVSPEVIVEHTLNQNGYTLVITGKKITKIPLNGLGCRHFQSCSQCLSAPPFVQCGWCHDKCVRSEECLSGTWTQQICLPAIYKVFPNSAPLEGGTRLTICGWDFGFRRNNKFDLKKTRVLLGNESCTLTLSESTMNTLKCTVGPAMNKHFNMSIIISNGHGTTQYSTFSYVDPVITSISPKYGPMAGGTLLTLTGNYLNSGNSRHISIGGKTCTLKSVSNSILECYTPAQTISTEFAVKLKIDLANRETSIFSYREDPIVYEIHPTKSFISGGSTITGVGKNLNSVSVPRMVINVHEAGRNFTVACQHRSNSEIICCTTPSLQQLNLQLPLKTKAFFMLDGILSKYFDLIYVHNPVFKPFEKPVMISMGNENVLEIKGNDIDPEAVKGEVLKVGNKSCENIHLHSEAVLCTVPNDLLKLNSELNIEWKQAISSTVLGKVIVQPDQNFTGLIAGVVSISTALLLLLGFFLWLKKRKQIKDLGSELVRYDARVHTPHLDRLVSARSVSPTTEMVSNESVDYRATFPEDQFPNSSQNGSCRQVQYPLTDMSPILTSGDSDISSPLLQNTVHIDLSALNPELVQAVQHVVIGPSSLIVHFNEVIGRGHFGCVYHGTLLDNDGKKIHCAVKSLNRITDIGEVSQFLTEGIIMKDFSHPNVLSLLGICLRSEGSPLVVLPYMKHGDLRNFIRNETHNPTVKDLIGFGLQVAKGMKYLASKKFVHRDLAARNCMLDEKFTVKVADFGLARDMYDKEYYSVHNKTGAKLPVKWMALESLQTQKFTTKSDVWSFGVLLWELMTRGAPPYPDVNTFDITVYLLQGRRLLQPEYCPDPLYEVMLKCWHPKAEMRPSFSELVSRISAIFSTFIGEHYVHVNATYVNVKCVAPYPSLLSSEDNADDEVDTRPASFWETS
Chain of Human MET (residues 956-1390) (P08581 956-1390): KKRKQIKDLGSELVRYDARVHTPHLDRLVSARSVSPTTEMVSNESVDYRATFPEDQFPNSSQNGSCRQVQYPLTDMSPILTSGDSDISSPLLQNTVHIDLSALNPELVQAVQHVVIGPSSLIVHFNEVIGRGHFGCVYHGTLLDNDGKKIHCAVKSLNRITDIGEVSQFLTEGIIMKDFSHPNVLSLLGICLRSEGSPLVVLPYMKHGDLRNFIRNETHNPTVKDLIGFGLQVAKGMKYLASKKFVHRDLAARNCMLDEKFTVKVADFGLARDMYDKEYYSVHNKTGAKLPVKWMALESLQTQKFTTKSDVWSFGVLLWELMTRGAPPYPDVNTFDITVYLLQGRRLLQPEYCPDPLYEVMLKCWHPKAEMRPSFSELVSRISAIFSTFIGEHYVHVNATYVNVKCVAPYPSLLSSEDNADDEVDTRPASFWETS

As for `Cc1ccc(C(=O)Nc2ccc(Oc3ccnc4ccc(OCCN(C)C)nc34)c(F)c2)c(=O)n1-c1ccc(F)cc1` [Compound 353, N-[4-[[6-[2-(dimethylamino)ethoxy]-1,5-naphthyridin-4-yl]oxy]-3-fluorophenyl]-1-(4-fluorophenyl)-6-methyl-2-oxopyridine-3-carboxamide], the IC50 in assay [1] and in assay [2] was under 100 nM throughout.

For the compound `Cc1nc(C)c(-c2ccc(F)cc2)c(O)c1C(=O)Nc1ccc(Oc2ccnc3ccc(OCCN(C)C)nc23)c(F)c1` [Compound 354, N-[4-[[6-[2-(dimethylamino)ethoxy]-1,5-naphthyridin-4-yl]oxy]-3-fluorophenyl]-5-(4-fluorophenyl)-4-hydroxy-2,6-dimethylpyridine-3-carboxamide], the half-maximal inhibitory concentration (IC50) in assay [1] and in assay [2] was under 100 nM each time.

`Cc1nc(C)c(-c2ccc(F)cc2)c(O)c1C(=O)Nc1ccc(Oc2ccnc3ccc(OCCN4CCOCC4)nc23)c(F)c1` [Compound 355, N-[3-fluoro-4-[[6-(2-morpholin-4-ylethoxy)-1,5-naphthyridin-4-yl)oxy]phenyl]-5-(4-fluorophenyl)-4-hydroxy-2,6-dimethylpyridine-3-carboxamide]: the IC50 in assay [1] and in assay [2] was under 100 nM each time.

As to `COc1ccc2nccc(Oc3ccc(NC(=O)c4cn(C)c(C)c(-c5ccc(F)cc5)c4=O)cc3)c2n1` [Compound 356, 5-(4-fluorophenyl)-N-[4-[(6-methoxy-1,5-naphthyridin-4-yl)oxy]phenyl]-1,6-dimethyl-4-oxopyridine-3-carboxamide], the 50% inhibitory concentration (IC50) was 100 to 300 nM in assay [1] and under 100 nM in assay [2].

With `COc1cc2nccc(Oc3ccc(NC(=O)c4nn(C(C)C)c(C)c(-c5ccc(F)cc5)c4=O)cc3F)c2nc1OC` [Compound 364, N-[4-[(6,7-dimethoxy-1,5-naphthyridin-4-yl)oxy]-3-fluorophenyl]-5-(4-fluorophenyl)-6-methyl-4-oxo-1-propan-2-ylpyridazine-3-carboxamide], the half-inhibitory concentration (IC50) in assay [1] and in assay [2] was under 100 nM each time.

Turning to `C=C(C)c1cc(C(=O)Nc2ccc(Oc3ccnc4cc(OC)c(OC)nc34)c(F)c2)c(=O)n(-c2ccc(F)cc2)c1C` [Compound 367, N-[4-[(6,7-dimethoxy-1,5-naphthyridin-4-yl)oxy]-3-fluorophenyl]-1-(4-fluorophenyl)-6-methyl-2-oxo-5-prop-1-en-2-ylpyridine-3-carboxamide], the IC50 in assay [1] was 100 to 300 nM; in assay [2], under 100 nM.

Consider `COc1cc2nccc(Oc3ccc(NC(=O)c4cc(C(C)C)c(C)n(-c5ccc(F)cc5)c4=O)cc3F)c2nc1OC` [Compound 368, N-[4-[(6,7-dimethoxy-1,5-naphthyridin-4-yl)oxy]-3-fluorophenyl]-1-(4-fluorophenyl)-6-methyl-2-oxo-5-propan-2-ylpyridine-3-carboxamide], for which the IC50 in assay [1] and in assay [2] was under 100 nM throughout.

Consider `CCOc1c(C(=O)Nc2ccc(Oc3ccnc4cc(OC)c(OC)nc34)c(F)c2)c(=O)c(-c2ccc(F)cc2)c(C)n1C` [Compound 369, N-[4-[(6,7-dimethoxy-1,5-naphthyridin-4-yl)oxy]-3-fluorophenyl]-2-ethoxy-5-(4-fluorophenyl)-1,6-dimethyl-4-oxopyridine-3-carboxamide], for which the IC50 in assay [1] is over 300 nM; in assay [2], under 100 nM.

`COc1cc2nccc(Oc3ccc(NC(=O)c4cc(C)c(C)n(-c5ccc(F)cc5)c4=O)cc3F)c2nc1OC` [Compound 370, N-[4-[(6,7-dimethoxy-1,5-naphthyridin-4-yl)oxy]-3-fluorophenyl]-1-(4-fluorophenyl)-5,6-dimethyl-2-oxopyridine-3-carboxamide]: the IC50 in assay [1] and in assay [2] was under 100 nM in each case.

In the case of `Cc1ncc(C(=O)Nc2ccc(Oc3ccnc4cc(-c5cnn(C(F)F)c5)ccc34)cc2)c(O)c1-c1ccc(F)cc1` [Compound 377, N-[4-[7-[1-(difluoromethyl)pyrazol-4-yl]quinolin-4-yl]oxyphenyl]-5-(4-fluorophenyl)-4-hydroxy-6-methylpyridine-3-carboxamide], the half-maximal inhibitory concentration (IC50) in assay [1] was 100 to 300 nM; in assay [2], under 100 nM.
